These results are taken from patent publication US9994590B2, “Substituted [1,2,4]triazolo[1,5-a]pyrazines as phosphodiesterase inhibitors” (Sunovion Pharamaceuticals Inc., priority 2012, dated 2018).

For the experiment, the target named is recombinant human PDE-10 enzyme (human PDE-10A) (Homo sapiens (Human), UniProt Q9Y233). In words: human PDE-10 inhibition assay (Molecular Devices IMAP PDE Fluorescence Polarization, enzyme assay IC50). Type of experiment: biochemical. To be noted: Fluorescein-labeled cAMP/cGMP substrate, 40-minute incubation at 37° C. Here is the method: In one embodiment, the compounds provided herein were assayed for their ability to inhibit human PDE-10A. In one embodiment, the activities of the compounds were determined using the Molecular Devices IMAP PDE Fluorescence Polarization assay using recombinant human PDE-10 enzyme expressed in a baculoviral system. Briefly, 10 μL of a compound (0.2 nM-20 μM) was added to either a 96-well half area black plate or a 384-well black plate along with 10 μL of Fluorescein-labeled cAMP/cGMP substrate as per manufacturer's instructions and 10 μL of PDE enzyme (activity 0.1 U). Following a 40-minute incubation at 37° C., 60 μL of IMAP binding reagent was added. The plate was then read on a Perkin Elmer Victor (480-535 nm). The data was analyzed using Prism Software (GraphPad Inc, San Diego, Calif.).
recombinant human PDE-10 enzyme (human PDE-10A), sequence (Q9Y233 whole entry): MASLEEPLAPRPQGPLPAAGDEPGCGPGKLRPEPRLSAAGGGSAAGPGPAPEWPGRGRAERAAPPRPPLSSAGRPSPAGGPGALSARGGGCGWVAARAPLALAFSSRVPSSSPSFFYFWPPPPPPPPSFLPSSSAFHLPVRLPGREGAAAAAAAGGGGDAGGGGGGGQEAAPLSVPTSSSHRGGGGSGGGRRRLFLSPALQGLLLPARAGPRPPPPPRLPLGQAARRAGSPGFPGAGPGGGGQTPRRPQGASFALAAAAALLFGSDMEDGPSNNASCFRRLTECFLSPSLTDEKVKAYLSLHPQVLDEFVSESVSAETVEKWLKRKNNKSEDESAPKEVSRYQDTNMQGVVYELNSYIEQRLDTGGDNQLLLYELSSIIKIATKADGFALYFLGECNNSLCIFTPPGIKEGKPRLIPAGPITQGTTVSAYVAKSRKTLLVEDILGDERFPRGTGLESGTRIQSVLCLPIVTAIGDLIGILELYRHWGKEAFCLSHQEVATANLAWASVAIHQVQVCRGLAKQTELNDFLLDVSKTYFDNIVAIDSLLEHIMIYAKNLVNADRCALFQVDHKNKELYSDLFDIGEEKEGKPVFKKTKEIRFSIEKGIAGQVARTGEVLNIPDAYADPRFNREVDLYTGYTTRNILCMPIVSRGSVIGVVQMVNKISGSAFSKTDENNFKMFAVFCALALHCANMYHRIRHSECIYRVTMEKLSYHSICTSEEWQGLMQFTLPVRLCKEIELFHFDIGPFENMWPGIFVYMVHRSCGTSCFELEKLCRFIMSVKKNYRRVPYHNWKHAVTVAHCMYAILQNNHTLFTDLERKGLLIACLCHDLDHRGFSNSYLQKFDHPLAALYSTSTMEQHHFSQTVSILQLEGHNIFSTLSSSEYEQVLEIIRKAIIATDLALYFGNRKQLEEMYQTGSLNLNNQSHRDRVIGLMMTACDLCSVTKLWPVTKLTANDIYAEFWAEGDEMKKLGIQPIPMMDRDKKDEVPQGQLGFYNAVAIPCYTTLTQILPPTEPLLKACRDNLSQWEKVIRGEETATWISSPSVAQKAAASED
As for `COc1cccn2c(F)c(C3CC3c3nc4c(C)ncc(C)n4n3)nc12` (racemic) [Compound 55, (±)-2-(2-(3-fluoro-8-methoxyimidazo[1,2-a]pyridin-2-yl)cyclopropyl)-5,8-dimethyl-[1,2,4]triazolo[1,5-a]pyrazine], the IC50 fell in the range of 10 to 100 nM.
For `Cc1cccn2cc(C3CC3c3cn4cccc(C)c4n3)nc12` (stereo not drawn) [Compound 8, 1,2-Bis(8-methylimidazo[1,2-a]pyridin-2-yl)cyclopropane] the value was more than 500 nM.
For `Cc1ncc(C)n2nc([C@H]3C[C@@H]3c3nc4c5cccnc5ccn4c3C)nc12` (single isomer, unassigned) [Compound 26] the value was 100 to 500 nM; for `COc1cccc2c1nc(C1CC1c1nc3c(C)ncc(C)n3n1)n2C` (racemic) [Compound 46, (±)-2-(2-(4-methoxy-1-methyl-1H-benzo [d]imidazol-2-yl)cyclopropyl)-5,8-dimethyl-[1,2,4]triazolo[1,5-a]pyrazine], 100 to 500 nM.
For `Cc1ncc(C)n2nc(C3CC3c3nc4c5cccc(F)c5ccn4c3C)nc12` (racemic) [Compound 30, (±)-2-(2-(5,8-dimethyl-[1,2,4]triazolo[1,5-a]pyrazin-2-yl)cyclopropyl)-7-fluoro-3-methylimidazo[2,1-a]isoquinoline] the value was 10 to 100 nM; for `Cc1cc2nc(C3CC3c3nc4c(C)ncc(C)n4n3)cn2cc1F` (stereo not drawn) [Compound 18], more than 500 nM.
`COc1cccn2cc(C3CC3c3nc4c(C)ncc(C)n4n3)nc12` (racemic) [Compound 59, (±)-2-(2-(8-methoxyimidazo[1,2-a]pyridin-2-yl)cyclopropyl)-5,8-dimethyl-[1,2,4]triazolo[1,5-a]pyrazine]: the IC50 fell in the range of 100 to 500 nM.
Take `COc1ccn2c(C)c(C3CCC3c3nc4c(C)ncc(C)n4n3)nc2c1` (racemic) [Compound 43, (±)-2-(2-(7-methoxy-3-methylimidazo[1,2-a]pyridin-2-yl)cyclobutyl)-5,8-dimethyl-[1,2,4]triazolo[1,5-a]pyrazine]: the IC50 was more than 500 nM.
For `COc1cccn2c(C)c(C3CCC3c3nc4c(C)ncc(C)n4n3)nc12` (racemic) [Compound 42, (±)-2-(2-(8-methoxy-3-methylimidazo[1,2-a]pyridin-2-yl)cyclobutyl)-5,8-dimethyl-[1,2,4]triazolo[1,5-a]pyrazine] the value was more than 500 nM.
Regarding `Fc1cccn2cc(C3CC3c3cn4cccc(F)c4n3)nc12` (stereo not drawn) [Compound 10], the IC50 is more than 500 nM.
On to `COc1cc(F)cn2c(C)c(C3CC3c3nc4c(C)ncc(C)n4n3)nc12` (racemic) [Compound 34, (±)-2-(2-(6-fluoro-8-methoxy-3-methylimidazo[1,2-a]pyridin-2-yl)cyclopropyl)-5,8-dimethyl-[1,2,4]triazolo[1,5-a]pyrazine], for which the IC50 lay in the range of 10 to 100 nM.
For `Cc1ncc(C)n2nc(C3CC3c3nc4c5c(ccn4c3F)OCCO5)nc12` (racemic) [Compound 48, (±)-9-(2-(5,8-dimethyl-[1,2,4]triazolo[1,5-a]pyrazin-2-yl)cyclopropyl)-8-fluoro-2,3-dihydro-[1,4]dioxino[2,3-c]imidazo[1,2-a]pyridine] the value was 10 to 100 nM; for `COc1cc(C)cn2c(F)c(C3CC3c3nc4c(C)ncc(C)n4n3)nc12` (racemic) [Compound 44, (±)-2-(2-(3-fluoro-8-methoxy-6-methylimidazo[1,2-a]pyridin-2-yl)cyclopropyl)-5,8-dimethyl-[1,2,4]triazolo[1,5-a]pyrazine], 10 to 100 nM.
The result for `Cc1ncc(C)n2cc(C3CC3c3nc4c(C)ncc(C)n4n3)nc12` (racemic) [Compound 45, (±)-2-(2-(5,8-dimethylimidazo[1,2-a]pyrazin-2-yl)cyclopropyl)-5,8-dimethyl-[1,2,4]triazolo[1,5-a]pyrazine] reads more than 500 nM; that for `Cc1ncc(C)n2nc(C3CC3c3nc(-c4ccccc4)cn3C)nc12` (stereo not drawn) [Compound 19, 5,8-Dimethyl-2-(2-(1-methyl-4-phenyl-1H-imidazol-2-yl)cyclopropyl)-[1,2,4]triazolo[1,5-a]pyrazine], 10 to 100 nM.
For `Clc1cccn2cc(C3CCC3c3cn4cccc(Cl)c4n3)nc12` (stereo not drawn) [Compound 23, 1,2-Bis(8-chloroimidazo[1,2-a]pyridin-2-yl)cyclobutane] the value was 100 to 500 nM.
As to `CCOc1ccn2c(C)c(C3CC3c3nc4c(C)ncc(C)n4n3)nc2c1` (stereo not drawn) [Compound 14], the IC50 is more than 500 nM.
For the compound `Cc1ccn2c(C)c(C3CC3c3cn4ccc(F)cc4n3)nc2c1` (stereo not drawn) [Compound 7, 2-(2-(7-Fluoroimidazo[1,2-a]pyridin-2-yl)cyclopropyl)-3,7-dimethylimidazo[1,2-a]pyridine], the IC50 is more than 500 nM.
The result for `Cn1c(C2CC2c2ccc3ccccc3n2)nc2c3cccnc3ccc21` (stereo not drawn) [Compound 20, 3-Methyl-2-(2-(quinolin-2-yl)cyclopropyl)-3H-imidazo[4,5-f]quinoline] reads 100 to 500 nM; that for `COc1cccn2c(C)c(C3CC3c3nc4c(C)ncc(C)n4n3)nc12` (stereo not drawn) [Compound 15], 10 to 100 nM.
For `Cc1ncc(C)n2nc(C3CC3c3nc4c5c(ccn4c3C)OCCO5)nc12` (racemic) [Compound 35, (±)-9-(2-(5,8-dimethyl-[1,2,4]triazolo[1,5-a]pyrazin-2-yl)cyclopropyl)-8-methyl-2,3-dihydro-[1,4]dioxino[2,3-c]imidazo[1,2-a]pyridine] the value was 10 to 100 nM; for `CCOc1cccn2cc(C3CC3c3nc4c(C)ncc(C)n4n3)nc12` (stereo not drawn) [Compound 17], 10 to 100 nM; for `COc1cc(OC)c2nc(C3CC3c3nc4c(C)ncc(C)n4n3)c(C)n2c1` (racemic) [Compound 37, (±)-2-(2-(6,8-dimethoxy-3-methylimidazo[1,2-a]pyridin-2-yl)cyclopropyl)-5,8-dimethyl-[1,2,4]triazolo[1,5-a]pyrazine], 10 to 100 nM.
The result for `Cc1ncc(C)n2nc(C3CC3c3nc4c5ccccc5ccn4c3C)nc12` (stereo not drawn) [Compound 3] reads not above 10 nM; that for `CCOc1cccn2c(C)c(C3CC3c3nc4c(C)ncc(C)n4n3)nc12` (racemic) [Compound 32, (±)-2-(2-(8-ethoxy-3-methylimidazo[1,2-a]pyridin-2-yl)cyclopropyl)-5,8-dimethyl-[1,2,4]triazolo[1,5-a]pyrazine], 10 to 100 nM; that for `COc1ccn2cc(C3CC3c3nc4c(C)ncc(C)n4n3)nc2c1` (stereo not drawn) [Compound 16], more than 500 nM.
`Cc1ccn2c(C)c(C3CC3c3nc4c(C)ncc(C)n4n3)nc2c1` (stereo not drawn) [Compound 6, 2-(2-(3,7-Dimethylimidazo[1,2-a]pyridin-2-yl)cyclopropyl)-5,8-dimethyl-[1,2,4]triazolo[1,5-a]pyrazine]: the IC50 lay within 100 to 500 nM.
The result for `Cc1ncc(C)n2nc([C@@H]3C[C@H]3c3nc4c5cccnc5ccn4c3C)nc12` (single isomer, unassigned) [Compound 27] reads not above 10 nM.
For `Cc1ncc(C)n2nc(C3CCC3c3nc4c5cccnc5ccc4n3C)nc12` (racemic) [Compound 40, (±)-2-(2-(5,8-dimethyl-[1,2,4]triazolo[1,5-a]pyrazin-2-yl)cyclobutyl)-3-methyl-3H-imidazo[4,5-f]quinoline] the value was more than 500 nM; for `Cc1cc2nc(C3CC3c3nc4c(C)ncc(C)n4n3)c(C)n2cc1F` (racemic) [Compound 33, (±)-2-(2-(6-fluoro-3,7-dimethylimidazo[1,2-a]pyridin-2-yl)cyclopropyl)-5,8-dimethyl-[1,2,4]triazolo[1,5-a]pyrazine], 100 to 500 nM.
